Experimental data: US8815909B2, “Diaminocyclohexane compounds and uses thereof” (Bristol-Myers Squibb Company, priority 2011, dated 2014)
Where two headings read alike, the source gives them in different places.

Molecular target: T1, human Y4 receptor (Homo sapiens, UniProt P50391)
T1 construct: expressed in transfected cells
Test: NPY4 cAMP HTRF Agonist Assay (inhibitory cAMP assay, Gi activation by Y4 agonism)
Type: cell-based
Conditions: read-out: hY4 CAMP EC50
In short: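 CHO cells stably expressing human Y4, 5000/well, exposed to compound with forskolin and IBMX in PBS for 30 min at room temperature. Gi-mediated inhibition of cAMP then measured by HTRF after 1 h with d2-conjugate and anti-cAMP cryptate.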

[1] = TABLE 7, R2 is Pyridinyl-oxadiazole-CH3

T1 sequence (P50391 whole entry): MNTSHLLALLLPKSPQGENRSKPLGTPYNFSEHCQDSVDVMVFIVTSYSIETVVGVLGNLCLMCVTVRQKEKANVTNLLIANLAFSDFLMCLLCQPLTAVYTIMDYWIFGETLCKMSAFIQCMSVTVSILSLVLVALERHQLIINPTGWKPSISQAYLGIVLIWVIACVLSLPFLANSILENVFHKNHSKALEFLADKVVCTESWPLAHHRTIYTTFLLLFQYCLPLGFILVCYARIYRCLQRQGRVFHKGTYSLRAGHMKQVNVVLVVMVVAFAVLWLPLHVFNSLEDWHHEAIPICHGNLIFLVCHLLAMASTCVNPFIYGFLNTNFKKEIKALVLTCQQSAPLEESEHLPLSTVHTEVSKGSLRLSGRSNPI

Row | Structure (SMILES) | EC50 (human Y4 receptor, cAMP) [nM] | EC50 [1] [nM]
1 | Cc1nc(-c2ccc(N3CCC[C@H](N[C@@H]4CCCC[C@H]4Nc4cc(-c5ccc(F)cc5F)ccn4)C3)cc2)no1 [Example 343] | 11 | –
2 | Cc1nnc(-c2ccc(N3CCCC(N[C@@H]4CCCC[C@H]4Nc4cc(-c5cccnc5)ccn4)C3)cc2)o1 (stereo partly drawn) [Example 345] | 64 | –
3 | Cc1nnc(-c2ccc(N3CCC[C@H](N[C@@H]4CCCC[C@H]4Nc4ncc(-c5cccc(C(N)=O)c5)o4)C3)cc2)o1 [Example 346] | 306 | –
4 | Cc1nc(-c2ccc(N3CCC[C@H](N[C@@H]4CCCC[C@H]4Nc4cc(-c5cccc(C(N)=O)c5)ccn4)C3)cc2)no1 [Example 347] | 0.2 | –
5 | Cc1nnc(-c2ccc(N3CCC[C@H](N[C@@H]4CCCC[C@H]4Nc4ncc(-c5ccccc5OC(F)(F)F)o4)C3)cc2)o1 [Example 348] | 3 | –
6 | Cc1nnc(-c2ccc(N3CCC[C@H](N[C@@H]4CCCC[C@H]4Nc4cc(-c5cccc(C(N)=O)c5)ccn4)C3)cc2)o1 [Example 349] | 1 | –
7 | Cc1nc(-c2ccc(N3C[C@@H]4C[C@H](N[C@@H]5CCCC[C@H]5Nc5nccc(-c6ccccc6)n5)[C@H]3C4)cc2)no1 [Example 350] | 9 | –
8 | Cc1nc(-c2ccc(N3C[C@@H]4C[C@H](N[C@@H]5CCCC[C@H]5Nc5ncc(-c6ccc(OC(F)(F)F)cc6)o5)[C@H]3C4)cc2)no1 [Example 351] | 448 | –
9 | Cc1nnc(-c2ccc(N3CCC[C@H](N[C@@H]4CCCC[C@H]4Nc4cc(Br)ccn4)C3)cc2)o1 [Example 352] | 318 | –
10 | Cc1nc(-c2ccc(N3C[C@@H]4C[C@H](N[C@@H]5CCCC[C@H]5Nc5cc(-c6cccc(C(N)=O)c6)ccn5)[C@H]3C4)cc2)no1 [Example 353] | 1 | –
11 | Cc1noc(-c2ccc(N3CCC[C@H](N[C@@H]4CCCC[C@H]4Nc4nccc(-c5ccccc5)n4)C3)cc2)n1 [Example 354] | 15 | –
12 | Cc1noc(-c2ccc(N3CCC[C@H](N[C@@H]4CCCC[C@H]4Nc4ncc(-c5ccc(OC(F)(F)F)cc5)o4)C3)cc2)n1 [Example 355] | 225 | –
13 | Cc1nnc(-c2ccc(N3CCCC(N[C@@H]4CCCC[C@H]4Nc4cc(-c5cccc(OC(F)(F)F)c5)ccn4)C3)cc2)o1 (stereo partly drawn) [Example 358] | 17 | –
14 | Cc1noc(-c2ccc(N3CCC[C@H](N[C@@H]4CCCC[C@H]4Nc4cc(-c5cccc(C(C)(C)O)c5)ccn4)C3)cc2)n1 [Example 362] | 23 | –
15 | Cc1noc(-c2ccc(N3CCC[C@H](N[C@@H]4CCCC[C@H]4Nc4cc(-c5cccc(OC(F)(F)F)c5)ccn4)C3)cc2)n1 [Example 363] | 314 | –
16 | Cc1nnc(-c2ccc(N3CCCC(N[C@@H]4CCCC[C@H]4Nc4cc(-c5ccc(F)cc5)ccn4)C3)cc2)o1 (stereo partly drawn) [Example 364] | 3 | –
17 | Cc1nnc(-c2ccc(N3CCCC(N[C@@H]4CCCC[C@H]4Nc4cc(-c5ccc(Cl)cc5)ccn4)C3)cc2)o1 (stereo partly drawn) [Example 365] | 52 | –
18 | COc1ccc(-c2ccnc(N[C@@H]3CCCC[C@H]3NC3CCCN(c4ccc(-c5nnc(C)o5)cc4)C3)c2)cc1 (stereo partly drawn) [Example 366] | 323 | –
19 | Cc1nnc(-c2ccc(N3CCCC(N[C@@H]4CCCC[C@H]4Nc4cc(-c5ccccc5F)ccn4)C3)cc2)o1 (stereo partly drawn) [Example 367] | 9 | –
20 | Cc1nnc(-c2ccc(N3CCCC(N[C@@H]4CCCC[C@H]4Nc4cc(-c5ccc6c(c5)OCO6)ccn4)C3)cc2)o1 (stereo partly drawn) [Example 368] | 39 | –

Row | Structure (SMILES) | EC50 (human Y4 receptor, cAMP) [nM] | EC50 [1] [nM]
21 | Cc1nnc(-c2ccc(N3CCCC(N[C@@H]4CCCC[C@H]4Nc4cc(-c5ccncc5)ccn4)C3)cc2)o1 (stereo partly drawn) [Example 369] | 5 | –
22 | Cc1nnc(-c2ccc(N3CCCC(N[C@@H]4CCCC[C@H]4Nc4cc(-c5ccc(O)cc5)ccn4)C3)cc2)o1 (stereo partly drawn) [Example 370] | 3 | –
23 | Cc1nnc(-c2ccc(N3CCCC(N[C@@H]4CCCC[C@H]4Nc4cc(-c5cncc6ccccc56)ccn4)C3)cc2)o1 (stereo partly drawn) [Example 371] | 18 | –
24 | COc1ncccc1-c1ccnc(N[C@@H]2CCCC[C@H]2NC2CCCN(c3ccc(-c4nnc(C)o4)cc3)C2)c1 (stereo partly drawn) [Example 372] | 59 | –
25 | Cc1noc(-c2ccc(N3CCC[C@H](N[C@@H]4CCCC[C@H]4Nc4cc(-c5cccc(C(N)=O)c5)ccn4)C3)cc2)n1 [Example 374] | 2 | –
26 | Cc1nnc(-c2ccc(N3CCC[C@H](N[C@@H]4CCCC[C@H]4Nc4cc(-c5ccc(OC(F)F)cc5)ccn4)C3)cc2)o1 [Example 375] | 217 | –
27 | NC(=O)c1cccc(-c2ccnc(N[C@@H]3CCCC[C@H]3N[C@H]3CCCN(c4ccc(-c5ncon5)cc4)C3)c2)c1 [Example 376] | 15 | –
28 | Cc1nnc(-c2ccc(N3CCC[C@H](N[C@@H]4CCCC[C@H]4Nc4cc(-c5cccc(S(N)(=O)=O)c5)ccn4)C3)cc2)o1 [Example 377] | 93 | –
29 | Cc1nc(-c2ccc(N3CCC[C@H](N[C@@H]4CCCC[C@H]4Nc4cc(-c5cccc(C(N)=O)c5)ccn4)C3)cn2)no1 [Example 378] | 4 | –
30 | Cc1noc(-c2ccc(N3CCC[C@H](N[C@@H]4CCCC[C@H]4Nc4ncc(-c5cccc(C(N)=O)c5)o4)C3)cc2)n1 [Example 379] | 1 | –
31 | Cc1nc(-c2ccc(N3CCC[C@](C)(N[C@@H]4CCCC[C@H]4Nc4cc(-c5cccc(C(N)=O)c5)ccn4)C3)cn2)no1 [Example 381] | – | 5
32 | COC(=O)Nc1cccc(-c2cnc(N[C@@H]3CCCC[C@H]3N[C@H]3CCCN(c4ccc(-c5noc(C)n5)nc4)C3)o2)c1 [Example 382] | – | 1
33 | COC(=O)c1cccc(-c2cnc(N[C@@H]3CCCC[C@H]3N[C@H]3CCCN(c4ccc(-c5noc(C)n5)nc4)C3)o2)c1 [Example 383] | – | 14
34 | Cc1nc(-c2ccc(N3CCC[C@H](N[C@@H]4CCCC[C@H]4Nc4ncc(-c5cccc(C(=O)O)c5)o4)C3)cn2)no1 [Example 384] | – | 606
35 | CNC(=O)c1cccc(-c2cnc(N[C@@H]3CCCC[C@H]3N[C@H]3CCCN(c4ccc(-c5noc(C)n5)nc4)C3)o2)c1 [Example 385] | – | 9
36 | Cc1nc(-c2ccc(N3CCC[C@H](N[C@@H]4CCCC[C@H]4Nc4ncc(-c5cccc(C(=O)NCC(C)C)c5)o4)C3)cn2)no1 [Example 386] | – | 243
37 | Cc1nc(-c2ccc(N3CCC[C@H](N[C@@H]4CCCC[C@H]4Nc4ncc(-c5cccc(C(=O)NC6CC6)c5)o4)C3)cn2)no1 [Example 387] | – | 78
38 | Cc1nc(-c2ccc(N3CCC[C@](C)(N[C@@H]4CCCC[C@H]4Nc4ncc(-c5cccc(C(N)=O)c5)o4)C3)cn2)no1 [Example 389] | – | 13
39 | Cc1nc(-c2ncc(N3CCC[C@H](N[C@@H]4CCCC[C@H]4Nc4ncc(-c5cccc(C(N)=O)c5)o4)C3)cn2)no1 [Example 390] | – | 3
40 | Cc1nc(-c2ccc(N3CCC[C@H](N[C@@H]4CCCC[C@H]4Nc4nccc(-c5ccccc5)n4)C3)nc2)no1 [Example 391] | – | 2

Row | Structure (SMILES) | EC50 (human Y4 receptor, cAMP) [nM] | EC50 [1] [nM]
41 | Cc1nc(-c2ccc(N3CCC[C@H](N[C@@H]4CCCC[C@H]4Nc4ncc(-c5ccc(OC(F)(F)F)cc5)o4)C3)nc2)no1 [Example 392] | – | 194
42 | Cc1nc(-c2ccc(N3CCC[C@H](N[C@@H]4CCCC[C@H]4Nc4cc(-c5cccc(C(N)=O)c5)ccn4)C3)nc2)no1 [Example 393] | – | 1
43 | Cc1nc(-c2ccc(N3CCC[C@H](N[C@@H]4CCCC[C@H]4Nc4ncc(-c5ccc(OC(F)(F)F)cc5)o4)C3)cn2)no1 [Example 394] | – | 427
44 | Cc1nc(-c2ccc(N3CCC[C@H](N[C@@H]4CCCC[C@H]4Nc4nccc(-c5ccccc5)n4)C3)cn2)no1 [Example 395] | – | 5
45 | Cc1nc(-c2ccc(N3CCC[C@H](N[C@@H]4CCCC[C@H]4Nc4ncc(-c5cccc(C(N)=O)c5)o4)C3)nc2)no1 [Example 396] | – | 0.2
46 | Cc1nc(-c2ccc(N3CCC[C@H](N[C@@H]4CCCC[C@H]4Nc4ncc(-c5cccc(C(N)=O)c5)o4)C3)cn2)no1 [Example 397] | – | 3
47 | NC(=O)c1cccc(-c2cnc(N[C@@H]3CCCC[C@H]3N[C@H]3CCCN(c4ncc(C(F)(F)F)cn4)C3)o2)c1 [Example 398] | 5 | –
48 | NC(=O)c1cccc(-c2ccnc(N[C@@H]3CCCC[C@H]3N[C@H]3CCCN(c4ncc(C(F)(F)F)cn4)C3)c2)c1 [Example 399] | 22 | –
49 | C[C@]1(N[C@@H]2CCCC[C@H]2Nc2cc(-c3cccc(C(N)=O)c3)ccn2)CCCN(c2ncc(C(F)(F)F)cn2)C1 [Example 400] | 28 | –
50 | FC(F)(F)Oc1ccc(-c2cnc(N[C@@H]3CCCC[C@H]3N[C@H]3CCCN(c4cnc(C(F)(F)F)nc4)C3)o2)cc1 [Example 401] | 1480 | –
51 | Fc1ccccc1-c1cnc(N[C@@H]2CCCC[C@H]2N[C@H]2CCCN(c3cnc(C(F)(F)F)nc3)C2)o1 [Example 402] | 161 | –
52 | Fc1ccc(-c2cnc(N[C@@H]3CCCC[C@H]3N[C@H]3CCCN(c4cnc(C(F)(F)F)nc4)C3)o2)c(F)c1 [Example 403] | 264 | –
53 | FC(F)(F)Oc1cccc(-c2cnc(N[C@@H]3CCCC[C@H]3N[C@H]3CCCN(c4cnc(C(F)(F)F)nc4)C3)o2)c1 [Example 404] | 954 | –
54 | C[C@]1(N[C@@H]2CCCC[C@H]2Nc2ncc(-c3cccc(C(N)=O)c3)o2)CCCN(c2ncc(C(F)(F)F)cn2)C1 [Example 405] | 4 | –
55 | FC(F)(F)c1ncc(N2CCC[C@H](N[C@@H]3CCCC[C@H]3Nc3ncc(-c4ccccc4)o3)C2)cn1 [Example 406] | 66 | –
56 | NC(=O)c1cccc(-c2cnc(N[C@@H]3CCCC[C@H]3N[C@H]3C[C@@H]4C[C@H]3N(c3cnc(C(F)(F)F)nc3)C4)o2)c1 [Example 407] | 329 | –
57 | NC(=O)c1cccc(-c2ccnc(N[C@@H]3CCCC[C@H]3N[C@H]3CCCN(c4cnc(C(F)(F)F)nc4)C3)c2)c1 [Example 408] | 121 | –
58 | CNC(=O)c1cccc(-c2cnc(N[C@@H]3CCCC[C@H]3N[C@H]3CCCN(c4cnc(C(F)(F)F)nc4)C3)o2)c1 [Example 409] | 4 | –
59 | CC(C)(C)OC(=O)Nc1cccc(-c2cnc(N[C@@H]3CCCC[C@H]3N[C@H]3CCCN(c4cnc(C(F)(F)F)nc4)C3)o2)c1 [Example 410] | 320 | –
60 | O=C(NC1CC1)c1cccc(-c2cnc(N[C@@H]3CCCC[C@H]3N[C@H]3CCCN(c4cnc(C(F)(F)F)nc4)C3)o2)c1 [Example 411] | 10 | –
